Our source for the EC50 and CC50 values is US20230107941A1, “HEPATITIS B CAPSID ASSEMBLY MODULATORS” (Venatorx Pharmaceuticals, Inc., priority 2019, published 2023).

A word on the EC50: it is the midpoint of the concentration-response curve. Broadly, the CC50 is the concentration at which the toxic effect on the cells reaches its halfway point. The low end stands for greater toxicity to the cells, the high end for lower toxicity to the cells.

One series concerns HBV. Description: In vitro antiviral assay: anti-HBV replication in HepAD38 cells (extracellular HBV DNA by QPCR). The series is classed as cell-based, hepatitis B virus (genotype D, serotype ayw). The note with it: Hepatitis B virus, HePAD38, 168 h, 7 days incubation, extracellular HBV DNA by QPCR, read-out: Anti-HBV EC50. The procedure, abridged: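 Read-out is extracellular HBV DNA (copies/mL, QPCR standard curve) after 7-day exposure of tet-free HepAD38 cells to 10-fold dilutions from 1 μM down to 10 pM. Values normalised to DMSO vehicle; EC50 from 4-parameter nonlinear regression, with entecavir validating each run.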

Series [1] can be described thus: In vitro cytotoxicity assay (MTT cell viability) in HepG2 cells. The note with it: human. The class given is cell-based, human. The procedure, abridged: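 CC50 was derived by 4-parameter fit of viability relative to vehicle controls, measured as MTT formazan absorbance at 492 nm after 3–4 h of reagent and DMSO solubilization. Before that, HepG2 cells seeded overnight at 20,000/well were incubated 7 days at 37°C with compound from 30 μM down to 1.0 nM in half-log steps.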

As to `CC(=O)N1CC[C@@H](NC(=O)C(=O)c2c(C)c(C(=O)Nc3ccc(F)c(C)c3)c(C)n2C)C(F)(F)C1` [Example 148, (R)-5-(2-((1-acetyl-3,3-difluoropiperidin-4-yl)amino)-2-oxoacetyl)-N-(4-fluoro-3-methylphenyl)-1,2,4-trimethyl-1H-pyrrole-3-carboxamide], the EC50 in the series on HBV is under 50 nM. The molecule also registered a CC50 at 7 days in series [1] of over 30 µM.
As for `CC(=O)N1CC[C@@H](NC(=O)C(=O)c2c(C)c(C(=O)Nc3ccc(F)c(C)c3)c(C)n2C)C(C)(C)C1` [Example 149, (R)-5-(2-((1-acetyl-3,3-dimethylpiperidin-4-yl)amino)-2-oxoacetyl)-N-(4-fluoro-3-methylphenyl)-1,2,4-trimethyl-1H-pyrrole-3-carboxamide], the EC50 with HBV was under 50 nM. The CC50 at 7 days in series [1] was over 30 µM.
In the case of `Cc1cc(NC(=O)c2c(C)c(C(=O)C(=O)N[C@]3(C)C[C@H](O)C3)n(C)c2-c2cccnc2)ccc1F` [Example 150, N-(4-fluoro-3-methylphenyl)-5-(2-(((1s,3s)-3-hydroxy-1-methylcyclobutyl)amino)-2-oxoacetyl)-1,4-dimethyl-2-(pyridin-3-yl)-1H-pyrrole-3-carboxamide], the EC50 in the series on HBV is over 1000 nM. This molecule yielded a CC50 at 7 days in series [1] of over 30 µM.
Consider `Cc1cc(NC(=O)c2c(C)c(C(=O)C(=O)N[C@H]3CC[C@@H](S(C)(=O)=O)CC3)n(C)c2-c2cccnc2)ccc1F` [Example 151, N-(4-fluoro-3-methylphenyl)-1,4-dimethyl-5-(2-(((1s,4s)-4-(methylsulfonyl)cyclohexyl)amino)-2-oxoacetyl)-2-(pyridin-3-yl)-1H-pyrrole-3-carboxamide], for which, in the series with HBV, the EC50 is over 1000 nM. In series [1], this molecule yielded a CC50 at 7 days of over 30 µM.
Take `Cc1cc(NC(=O)c2c(C)c(C(=O)C(=O)N[C@]3(C)CC[C@H](O)CC3)n(C)c2-c2cccnc2)ccc1F` [Example 152, N-(4-fluoro-3-methylphenyl)-5-(2-(((1s,4s)-4-hydroxy-1-methylcyclohexyl)amino)-2-oxoacetyl)-1,4-dimethyl-2-(pyridin-3-yl)-1H-pyrrole-3-carboxamide]: the EC50 in the series with HBV is over 1000 nM. The CC50 at 7 days in series [1] was over 30 µM.
On to `Cc1cc(NC(=O)c2c(C)c(C(=O)C(=O)N[C@H]3CC[C@@H](O)CC3)n(C)c2-c2cccnc2)ccc1F` [Example 153, N-(4-fluoro-3-methylphenyl)-5-(2-(((1s,4s)-4-hydroxycyclohexyl)amino)-2-oxoacetyl)-1,4-dimethyl-2-(pyridin-3-yl)-1H-pyrrole-3-carboxamide], for which the EC50 in the series on HBV was over 1000 nM. The molecule further gave a CC50 at 7 days in series [1] of over 30 µM.
Consider `Cc1cc(NC(=O)c2c(C)c(C(=O)C(=O)NCC(C)(C)O)n(C)c2-c2cccnc2)ccc1F` [Example 154, N-(4-fluoro-3-methylphenyl)-5-(2-((2-hydroxy-2-methylpropyl)amino)-2-oxoacetyl)-1,4-dimethyl-2-(pyridin-3-yl)-1H-pyrrole-3-carboxamide], for which, in the series on HBV, the concentration for a half-maximal effect (EC50) was 50 to 499 nM. Besides, the CC50 at 7 days in series [1] was over 30 µM.
Consider `Cc1cc(NC(=O)c2c(C)c(C(=O)C(=O)N[C@]3(C)C[C@H](O)C3)n(C)c2-c2ccccn2)ccc1F` [Example 155, N-(4-fluoro-3-methylphenyl)-5-(2-(((1s,3s)-3-hydroxy-1-methylcyclobutyl)amino)-2-oxoacetyl)-1,4-dimethyl-2-(pyridin-2-yl)-1H-pyrrole-3-carboxamide], for which the EC50 with HBV was over 1000 nM. This molecule also registered a CC50 at 7 days in series [1] of over 30 µM.
Take `Cc1cc(NC(=O)c2c(C)c(C(=O)C(=O)N[C@H]3CC[C@@H](S(C)(=O)=O)CC3)n(C)c2-c2ccccn2)ccc1F` [Example 156, N-(4-fluoro-3-methylphenyl)-1,4-dimethyl-5-(2-(((1s,4s)-4-(methylsulfonyl)cyclohexyl)amino)-2-oxoacetyl)-2-(pyridin-2-yl)-1H-pyrrole-3-carboxamide]: the EC50 in the series on HBV was over 1000 nM. The molecule also showed a cytotoxic concentration (CC50) at 7 days in series [1] of over 30 µM.
In the case of `Cc1cc(NC(=O)c2c(C)c(C(=O)C(=O)N[C@]3(C)CC[C@H](O)CC3)n(C)c2-c2ccccn2)ccc1F` [Example 157, N-(4-fluoro-3-methylphenyl)-5-(2-(((1s,4s)-4-hydroxy-1-methylcyclohexyl)amino)-2-oxoacetyl)-1,4-dimethyl-2-(pyridin-2-yl)-1H-pyrrole-3-carboxamide], the EC50 in the series on HBV is 50 to 499 nM. In series [1], this molecule showed a CC50 at 7 days of over 30 µM.
As for `Cc1cc(NC(=O)c2c(C)c(C(=O)C(=O)N[C@H]3CC[C@@H](O)CC3)n(C)c2-c2ccccn2)ccc1F` [Example 158, N-(4-fluoro-3-methylphenyl)-5-(2-(((1s,4s)-4-hydroxycyclohexyl)amino)-2-oxoacetyl)-1,4-dimethyl-2-(pyridin-2-yl)-1H-pyrrole-3-carboxamide], in the series with HBV, the EC50 was over 1000 nM. In series [1], this molecule yielded a CC50 at 7 days of over 30 µM.
As for `Cc1cc(NC(=O)c2c(C)c(C(=O)C(=O)NCC(C)(C)O)n(C)c2-c2ccccn2)ccc1F` [Example 159, N-(4-fluoro-3-methylphenyl)-5-(2-((2-hydroxy-2-methylpropyl)amino)-2-oxoacetyl)-1,4-dimethyl-2-(pyridin-2-yl)-1H-pyrrole-3-carboxamide], in the series on HBV, the EC50 is over 1000 nM. Also, the CC50 at 7 days in series [1] was over 30 µM.
For `Cc1cc(NC(=O)c2c(C)c(C(=O)C(=O)N[C@H]3CC[C@@H](S(C)(=O)=O)CC3)n(C)c2-c2ccncc2)ccc1F` [Example 160, N-(4-fluoro-3-methylphenyl)-1,4-dimethyl-5-(2-(((1s,4s)-4-(methylsulfonyl)cyclohexyl)amino)-2-oxoacetyl)-2-(pyridin-4-yl)-1H-pyrrole-3-carboxamide], the concentration for a half-maximal effect (EC50) in the series on HBV was over 1000 nM. This molecule came in with a CC50 at 7 days in series [1] of over 30 µM.
As for `Cc1cc(NC(=O)c2c(C)c(C(=O)C(=O)N[C@]3(C)C[C@H](O)C3)n(C)c2-c2ccncc2)ccc1F` [Example 161, N-(4-fluoro-3-methylphenyl)-5-(2-(((1s,3s)-3-hydroxy-1-methylcyclobutyl)amino)-2-oxoacetyl)-1,4-dimethyl-2-(pyridin-4-yl)-1H-pyrrole-3-carboxamide], in the series with HBV, the EC50 is over 1000 nM. Besides, the CC50 at 7 days in series [1] is over 30 µM.
On to `Cc1cc(NC(=O)c2c(C)c(C(=O)C(=O)N[C@]3(C)CC[C@H](O)CC3)n(C)c2-c2ccncc2)ccc1F` [Example 162, N-(4-fluoro-3-methylphenyl)-5-(2-(((1s,4s)-4-hydroxy-1-methylcyclohexyl)amino)-2-oxoacetyl)-1,4-dimethyl-2-(pyridin-4-yl)-1H-pyrrole-3-carboxamide], for which the EC50 in the series on HBV was over 1000 nM. For the same molecule, in series [1], the CC50 at 7 days is over 30 µM.
`Cc1cc(NC(=O)c2c(C)c(C(=O)C(=O)N[C@H]3CC[C@@H](O)CC3)n(C)c2-c2ccncc2)ccc1F` [Example 163, N-(4-fluoro-3-methylphenyl)-5-(2-(((1s,4s)-4-hydroxycyclohexyl)amino)-2-oxoacetyl)-1,4-dimethyl-2-(pyridin-4-yl)-1H-pyrrole-3-carboxamide]: the EC50 in the series on HBV was over 1000 nM. This molecule gave a CC50 at 7 days in series [1] of over 30 µM.
For `Cc1cc(NC(=O)c2c(C)c(C(=O)C(=O)NCC(C)(C)O)n(C)c2-c2ccncc2)ccc1F` [Example 164, N-(4-fluoro-3-methylphenyl)-5-(2-((2-hydroxy-2-methylpropyl)amino)-2-oxoacetyl)-1,4-dimethyl-2-(pyridin-4-yl)-1H-pyrrole-3-carboxamide] the same measures were over 1000 nM and over 30 µM.
Consider `CC(=O)N1CC[C@@H](NC(=O)C(=O)c2c(C)c(C(=O)Nc3ccc(F)c(C)c3)c(C)n2C)C[C@H]1C` [Example 165, 5-(2-(((2R,4R)-1-acetyl-2-methylpiperidin-4-yl)amino)-2-oxoacetyl)-N-(4-fluoro-3-methylphenyl)-1,2,4-trimethyl-1H-pyrrole-3-carboxamide], for which the EC50 in the series with HBV is under 50 nM. In series [1], this molecule displayed a CC50 at 7 days of over 30 µM.
For `CC(=O)N1CC[C@H](NC(=O)C(=O)c2c(C)c(C(=O)Nc3ccc(F)c(C)c3)c(C)n2C)C[C@@H]1C` [Example 166, 5-(2-(((2S,4S)-1-acetyl-2-methylpiperidin-4-yl)amino)-2-oxoacetyl)-N-(4-fluoro-3-methylphenyl)-1,2,4-trimethyl-1H-pyrrole-3-carboxamide], the EC50 with HBV was in the range of 50 to 499 nM. This molecule showed a CC50 at 7 days in series [1] of over 30 µM.
The matching figures for `CC(=O)N1CC[C@@H](NC(=O)C(=O)c2c(C)c(C(=O)Nc3ccc(F)c(C)c3)c(C)n2C)[C@H](O)C1` [Example 167, 5-(2-(((3R,4R)-1-acetyl-3-hydroxypiperidin-4-yl)amino)-2-oxoacetyl)-N-(4-fluoro-3-methylphenyl)-1,2,4-trimethyl-1H-pyrrole-3-carboxamide]: 500 to 1000 nM and over 30 µM.
`Cc1cc(NC(=O)c2c(C)c(C(=O)C(=O)N[C@]3(C)CC[C@@H](O)CC3)n(C)c2C)cc(C)c1F` [Example 168, N-(4-fluoro-3,5-dimethylphenyl)-5-(2-(((1r,4r)-4-hydroxy-1-methylcyclohexyl)amino)-2-oxoacetyl)-1,2,4-trimethyl-1H-pyrrole-3-carboxamide]: in the series on HBV, the EC50 is under 50 nM. The CC50 at 7 days in series [1] is over 30 µM.
For `Cc1cc(Cl)cc(NC(=O)c2c(C)c(C(=O)C(=O)N[C@]3(C)CC[C@@H](O)CC3)n(C)c2C)c1` [Example 169, N-(3-chloro-5-methylphenyl)-5-(2-(((1r,4r)-4-hydroxy-1-methylcyclohexyl)amino)-2-oxoacetyl)-1,2,4-trimethyl-1H-pyrrole-3-carboxamide], in the series on HBV, the EC50 is under 50 nM. Besides, the cytotoxic concentration (CC50) at 7 days in series [1] fell in the range of 5 to 30 µM.
